Earlier results on 1 compound are cited in paper PMC9920808, “Impact of the Substitution Pattern at the Basic Center and Geometry of the Amine Fragment on 5-HT6 and D3R Affinity in the 1H-Pyrrolo[3,2-c]quinoline Series” (Molecules, 2023).

What is called Ki is a dissociation constant, usually derived from enzyme kinetics or from competition with a known ligand.

Structures are written as SMILES.

One series addresses 5-HT6R. The following applies: Figure 1; ref 25 (SB737050), ref 19 (I), ref 26 (PZ-1643), ref 27 (CPPQ); cited from earlier work.
In a further series the target is D2R. The following applies: Figure 1; ref 25 (SB737050), ref 19 (I), ref 26 (PZ-1643), ref 27 (CPPQ); cited from earlier work.
For the next series, the target named is human D3R (Homo sapiens, UniProt P35462). More on the design: method as in PMID 30896921. The following applies: data taken from ref 26, cited from earlier work.
For a further series, the target named is D3R. More on the design: method as in earlier work. The following applies: Figure 1; ref 25 (SB737050), ref 19 (I), ref 26 (PZ-1643); cited from earlier work.
The target of the next series is T1, human 5-HT6R (Homo sapiens, UniProt P50406).
T1 construct: expressed in transfected cells
More on the design: method as in PMID 30896921. The following applies: HEK293 cells, data taken from ref 26; cited from earlier work.

Sequence of human D3R (P35462 whole entry): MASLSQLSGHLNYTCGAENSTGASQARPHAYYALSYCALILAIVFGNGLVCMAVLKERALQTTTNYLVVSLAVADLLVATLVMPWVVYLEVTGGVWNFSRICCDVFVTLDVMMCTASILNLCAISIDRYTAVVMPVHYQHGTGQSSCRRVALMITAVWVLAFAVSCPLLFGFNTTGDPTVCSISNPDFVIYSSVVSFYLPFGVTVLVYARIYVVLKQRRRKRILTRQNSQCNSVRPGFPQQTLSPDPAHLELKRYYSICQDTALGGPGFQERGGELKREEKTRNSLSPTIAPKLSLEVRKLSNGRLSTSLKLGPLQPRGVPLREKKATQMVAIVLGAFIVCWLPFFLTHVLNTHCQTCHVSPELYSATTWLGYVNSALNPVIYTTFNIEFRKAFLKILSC
T1 sequence (P50406 whole entry): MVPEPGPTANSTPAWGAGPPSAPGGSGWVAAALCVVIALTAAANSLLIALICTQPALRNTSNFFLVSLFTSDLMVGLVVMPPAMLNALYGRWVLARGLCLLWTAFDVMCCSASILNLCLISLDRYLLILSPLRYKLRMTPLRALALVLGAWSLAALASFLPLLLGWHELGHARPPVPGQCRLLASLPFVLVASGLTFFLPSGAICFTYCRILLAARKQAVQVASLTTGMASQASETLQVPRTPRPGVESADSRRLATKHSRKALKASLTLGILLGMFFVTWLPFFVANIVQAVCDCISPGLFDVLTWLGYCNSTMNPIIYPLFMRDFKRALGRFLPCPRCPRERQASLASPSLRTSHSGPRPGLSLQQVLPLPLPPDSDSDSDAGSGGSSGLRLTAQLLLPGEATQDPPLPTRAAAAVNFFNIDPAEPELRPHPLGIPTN

For `CC(C)CN1CC[C@H](Nc2nc3ccccc3c3c2ccn3S(=O)(=O)c2cccc(Cl)c2)C1` [PZ-1643], the “pKi 5-HT6R” value at 5-HT6R was 7.6. For the same compound, the “pKi D2R” value on D2R is 6.5. Also, at human D3R (percentage displacement at 10^-6 M), the “%inh Binding to D3R @1μM” value is recorded as 98%. Further, the Ki was 7 nM at human D3R (printed in parentheses after %inh, read-out: D3R affinity value in parentheses (Ki)) and 27 nM at human 5-HT6R. The “pKi D3R” value on D3R was 8.2.
